# Experiments:
# [1] = system: Human colon carcinoma HCT116 cells; experiment: Anti-proliferative effect, Alamar Blue assay, HCT116; format: cell-based; conditions: Homo sapiens, HCT-116, 96 h, 4-day incubation, read-out: HCT116 antiproliferative activity pIC50 (converted)
# Method: Human colon carcinoma HCT116 cells obtained from the ATCC were cultured in McCoy's 5A medium supplemented with 2 mM L-Glutamine, 50 μg/ml gentamicin and 10% heat inactivated fetal calf serum.
# (§1) Resazurin was purchased from Aldrich (Prod. No. 199303). Potassium ferrocyanide, potassium ferricyanide, KH2PO4 and K2HPO4 were purchased from Sigma (Prod. Nos. P9387, P8131, P5655 and P8281, respectively).
# (§2) Potassium Phosphate Buffer 0.1 M (PPB) was made as follows: 2.72 gram KH2PO4 and 13.86 gram K2HPO4 were dissolved in 500 ml milli-Q H2O, the pH was adjusted to pH 7.4 and the volume was brought to 1 liter with milli-Q H2O; the buffer was filter sterilised and stored at room temperature. Resazurin stock solution (PPB-A) was prepared fresh by dissolving 45 mg resazurin in 15 ml PBS. 30 mM potassium ferricyanide (PPB-B) was prepared by dissolving 0.987 gram potassium ferricyanide in 100 ml PPB. 30 mM potassium ferrocyanide (PPB-C) was prepared by dissolving 1.266 gram potassium ferrocyanide in 100 ml PPB.
# (§3) Mixture of PPB-A, PPB-B and PPB-C was prepared by mixing equal volumes of the respective solutions. Resazurin work solution (herein termed “Alamar Blue” solution) was prepared by diluting said mixture 20× (vol/vol) in PPB and filter sterilising; the Alamar Blue solution could be kept at 4° C. for a maximum of 2 weeks.
# (§4) For experiments in 384 wells plates the cells were seeded at a density of 4.5×10^3 cells/ml in Falcon 384-well culture plates (Life Technologies, Merelbeke, Belgium), black with clear bottom, in 45 μl culture medium. Cells were allowed to adhere to plastic for 24 hours. The tested compound was pre-diluted (1/50 in culture medium) and 5 μl pre-diluted compound was added to the wells. Following 4-day incubation, 10 μl of the Alamar Blue solution was added to each well and the cells were further incubated for 4 hours (HCT116) or 24 hours (PC-3) at 37° C. The fluorescence intensity was measured for each well on a Fluorescence plate reader (Fluoroskan, Labsystems, 540 nm excitation and 590 nm emission)
# (§5) The antiproliferative activity was calculated as percentage of remaining viable cells in treated versus control (untreated cells) conditions. Within an experiment, the result for each experimental condition is the mean of 3 replicate wells. When appropriate, the experiments were repeated to establish full concentration-response curves. When appropriate, IC50-values (concentration of the drug, needed to reduce cell growth to 50% of the control) were computed using probit analysis for graded data (Finney, D. J., Probit Analyses, 2nd Ed. Chapter 10, Graded Responses, Cambridge University Press, Cambridge 1962). Herein the effects of test compounds are expressed as pIC50 (the negative log value of the IC50-value) (see Table 3).
# [2] = system: Human prostate cancer PC-3 cells; experiment: Anti-proliferative effect, Alamar Blue assay, PC-3; format: cell-based; conditions: Homo sapiens, 96 h, 4-day incubation, read-out: PC3 antiproliferative activity pIC50 (converted)
# Method: Human prostate cancer PC-3 cells obtained from the ATCC were cultured in HAM'S F12 medium supplemented with 1 mM Sodium Pyruvate, 1.5 g/L Sodium Bicarbonate, 50 μg/ml gentamicin, non-essential amino acids and 10% fetal calf serum.
# as §1, §2, §3, §4, §5
# [3] = system: human prostate cancer PC3 cells; experiment: Eb1 cellular assay (Eb1 Comet assay); format: cell-based; conditions: 1 hour treatment, LAC = concentration where Eb1 foci absent in at least 50% of treated cells
# Method: The Eb1 Comet assay relies on the detection of the Eb1 protein at the plus end of polymerizing microtubules (Mimori-Kiyosue, 2000) using indirect immunofluorescence. Disruption of microtubule dynamics through de-polymerization or stabilization results in a de-localization of Eb1 from the growing microtubule ends and this is visualized by the disappearance of Eb1 containing cytoplasmic foci.
# Briefly, human prostate cancer PC3 cells obtained from the American Type Culture Collection were grown in 96-well plates (Greiner, cat. no. 655090) in HAM's F12 medium as recommended by the provider (ATCC). The cells were treated for 1 hour at 37° C. with compounds dissolved in DMSO (0.6% final DMSO concentration). The culture medium was then removed by aspiration and the cells were fixed by adding cold methanol (−20° C.). After a 15 minutes incubation at −20° C., the cells were washed twice with DPBS (Gibco) containing 0.5% Triton X-100. Mouse Eb1 antibody (BD Transduction Laboratories, cat. no. 610534) was added to the cells (1/250 dilution in DPBS containing 1% BSA) and incubated overnight at room temperature. The antibody was subsequently removed and the cells washed twice with DPBS, 0.5% Triton X-100. Secondary goat anti-mouse antibody conjugated to Alexa 488 fluorescent dye (Molecular Probes) was added at a 1/500 dilution in DPBS, 1% BSA and incubated for 1 hour at 37° C. The cells were washed twice with DPBS, 0.5% Triton X-100 and then DPBS containing 0.5% Triton X-100 and 1/5000 Hoechst 33342 (Molecular Probes) was added. Microscopy based Eb1 foci visualization was carried out using an IN Cell Analyser 1000 (Amersham Biosciences) using a 20× objective. Compound dependent microtubule disruption was visually determined by the disappearance in Eb1 foci. The lowest active concentration (LAC) was determined as the concentration where Eb1 foci were absent in at least 50% of the treated cells. Herein the effects of test compounds are expressed as pLAC (the negative log value of the LAC-value) (see Table 3).
# α-β-Tubulin = α-β-Tubulin polymerization assay; format: biochemical; conditions: inhibition of polymerization at 20 μM and 5 μM, reported as score
# Method: The tubulin polymerization assay is an adaptation of an assay originally described by Bonne, D. et al. (J. Biol. Chem., 1985, 260:2819-25). The assay kit was purchased from Cytoskeleton, Inc. (catalogue number BK011) and the assay was performed as described by the supplier with the following modifications. The assay was run in a 384-well black Proxiplate (Perkin Elmer) and volumes were adapted accordingly. The reactions were carried out in a final volume of 10 μl. Compounds were added to 25 μl of the reaction mix in 96-well PP plates (Corning) on ice and 10 μl of this mixture was dispensed into duplicates of the 384-well Proxiplates pre-warmed to 37° C. in a Fluoroskan Ascent plate reader (Thermo Scientific). Fluorescence measurements were taken every minute for one hour. The maximum slope of each well was determined (linear regression through 4 consecutive points) and polymerization was calculated as a percentage of polymerization observed in the absence of compound. Compounds were first measured at a concentration of 20 μM and then at 5 μM for those showing more than 50% inhibition at 20 μM as compared to the polymerization observed in the absence of compound. Results are reported in Table F-2 as scores defined as: a compound showing 0 to 50% inhibition at 20 μM is reported as score 1; a compound showing more than 50% inhibition at 5 μM is reported as score 3.
Compound,melting point,IC50 [1],IC50 [2],Eb1 pLAC [3],tubulin polymerization score (α-β-Tubulin)
"CCN1Cc2ccc([C@](C)(C#N)Cc3nc(OC)cc(OC)n3)cc2NC1=O (single isomer, unassigned) [Compound 1]",95 °C,39.8 nM,79.4 nM,>7.5,–
CCN1Cc2ccc([C@](C)(C#N)Cc3ccccc3)cc2NC1=O [Compound 4],124 °C,200 nM,501 nM,–,3 (a compound showing more than 50% inhibition at 5 μM is reported as score 3)
CCN1Cc2ccc([C@@](C)(C#N)Cc3cccc(C#N)c3)cc2NC1=O [Compound 5],152 °C,> 10000 nM,> 10000 nM,–,1 (a compound showing 0 to 50% inhibition at 20 μM is reported as score 1)
CCN1Cc2ccc([C@](C)(C#N)Cc3cccc(C#N)c3)cc2NC1=O [Compound 6],152 °C,50.1 nM,100 nM,7,3 (a compound showing more than 50% inhibition at 5 μM is reported as score 3)
CN1Cc2ccc(C(C)(C#N)Cc3ccccc3)cc2NC1=O (centres unmarked) [Compound 7],210 °C,794 nM,501 nM,6.5,3 (a compound showing more than 50% inhibition at 5 μM is reported as score 3)
CCN1Cc2ccc(C(C)(C#N)Cc3cccc(I)c3)cc2NC1=O (centres unmarked) [Compound 8],83 °C,200 nM,501 nM,6.5,3 (a compound showing more than 50% inhibition at 5 μM is reported as score 3)
C#Cc1cccc(CC(C)(C#N)c2ccc3c(c2)NC(=O)N(CC)C3)c1 (centres unmarked) [Compound 10],84.4 to 102.4 °C,158 nM,316 nM,7,3 (a compound showing more than 50% inhibition at 5 μM is reported as score 3)
